Test [1] addresses T1, Kv1.3 potassium channel (Homo sapiens, UniProt P22001).
T1 construct: expressed in transfected cells
The test can be described thus: Kv1.3 potassium channel blocker activity, automated whole-cell patch clamp (Patchliner). The class given is cell-based. The method in brief:
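IC50 came from Hill-equation fits of peak and AUC currents from the final pulse at each concentration, normalized to compound-free control. Compounds applied consecutively at 30 nM to 100 μM (up to 0.3% DMSO) to Kv1.3-expressing CHO-K1 cells, P/4 leak subtraction. Pulses were +40 mV, 100 ms, from −90 mV holding, at 0.1 Hz on Patchliner.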

In test [2] the target is T2, hERG channel (Homo sapiens, UniProt Q12809).
T2 construct: expressed in transfected cells
In words: hERG electrophysiology, automated whole-cell patch clamp (Patchliner). Format: cell-based. As for the experimental part: This assay is used to evaluate the disclosed compounds' inhibition activities against the hERG channel.
CHO-K1 cells stably expressing hERG were grown in Ham's F-12 Medium with glutamine containing 10% heat-inactivated FBS, 1% penicillin/streptomycin, hygromycin (100 μg/ml) and G418 (100 μg/ml). Cells were grown in culture flasks at 37° C. in a 5% CO2-humidified incubator.
The cells were bathed in an extracellular solution containing 140 mM NaCl, 4 mM KCl, 2 mM CaCl2), 1 mM MgCl2, 5 mM glucose, and 10 mM HEPES; pH adjusted to 7.4 with NaOH; 295-305 mOsm. The internal solution contained 50 mM KCl, 10 mM NaCl, 60 mM KF, 20 mM EGTA, and 10 mM HEPES; pH adjusted to 7.2 with KOH; 285 mOsm. All compounds were dissolved in DMSO at 30 mM. Compound stock solutions were freshly diluted with external solution to concentrations of 30 nM, 100 nM, 300 nM, 1 μM, 3 μM, 10 μM, 30 μM and 100 μM. The highest content of DMSO (0.3%) was present in 100 μM.
The voltage protocol (see Table 3) was designed to simulate voltage changes during a cardiac action potential with a 300 ms depolarization to +20 mV (analogous to the plateau phase of the cardiac action potential), a repolarization for 300 ms to −50 mV (inducing a tail current) and a final step to the holding potential of −80 mV. The pulse frequency was 0.3 Hz. Control (compound-free) and compound pulse trains for each compound concentration applied contained 70 pulses.
Whole-cell current recordings and compound application were enabled by means of an automated patch clamp platform Patchliner (Nanion). EPC 10 patch clamp amplifier (HEKA) along with Patchmaster software (HEKA Elektronik Dr. Schulze GmbH) was used for data acquisition. Data were sampled at 10 kHz without filtering. Increasing compound concentrations were applied consecutively to the same cell without washouts in between.
AUC and PEAK values were obtained with Patchmaster (HEKA Elektronik Dr. Schulze GmbH). To determine IC50 the last single pulse in the pulse train corresponding to a given compound concentration was used. Obtained AUC and PEAK values in the presence of compound were normalized to control values in the absence of compound. Using Origin (OridinLab), IC50 was derived from data fit to Hill equation: Icompound/Icontrol=(100-A)/(1+([compound]/IC50)nH)+A, where IC50 is the concentration at which current inhibition is half-maximal, [compound] is the applied compound concentration, A is the fraction of current that is not blocked and nH is the Hill coefficient.

Where [3] appears, read: Kv1.3 potassium channel, whole-cell patch clamp.
[4] abbreviates: hERG channel, whole-cell patch clamp.
[5] abbreviates: CHO-K1 cells stably expressing Kv1.3, 100 ms pulses from -90 mV to +40 mV, 0.1 Hz.
The mark [6] stands for this setting: CHO-K1 cells stably expressing hERG, +20 mV 300 ms, -50 mV 300 ms tail current, 0.3 Hz.

Each structure is given as a SMILES string. A value given as a limit tells only on which side of the number the result lay.

One may read the IC50 as the concentration at which inhibition is half-maximal. Lower therefore signals greater potency in that assay.

T1 sequence (P22001 whole entry): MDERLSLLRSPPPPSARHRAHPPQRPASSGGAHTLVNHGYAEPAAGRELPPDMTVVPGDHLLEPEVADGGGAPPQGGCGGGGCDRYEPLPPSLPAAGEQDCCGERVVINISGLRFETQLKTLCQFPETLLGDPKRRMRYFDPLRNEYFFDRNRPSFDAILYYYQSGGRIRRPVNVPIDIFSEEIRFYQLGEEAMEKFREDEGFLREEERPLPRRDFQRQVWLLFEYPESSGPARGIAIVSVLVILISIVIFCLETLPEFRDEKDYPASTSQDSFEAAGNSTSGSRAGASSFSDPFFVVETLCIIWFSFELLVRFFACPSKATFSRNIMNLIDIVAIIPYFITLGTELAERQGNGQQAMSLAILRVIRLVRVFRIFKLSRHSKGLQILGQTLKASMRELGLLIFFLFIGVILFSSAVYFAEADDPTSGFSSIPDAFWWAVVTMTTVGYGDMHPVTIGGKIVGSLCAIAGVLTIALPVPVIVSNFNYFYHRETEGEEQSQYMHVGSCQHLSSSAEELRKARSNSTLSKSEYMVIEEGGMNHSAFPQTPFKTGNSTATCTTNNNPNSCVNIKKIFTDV
T2 sequence (Q12809 whole entry): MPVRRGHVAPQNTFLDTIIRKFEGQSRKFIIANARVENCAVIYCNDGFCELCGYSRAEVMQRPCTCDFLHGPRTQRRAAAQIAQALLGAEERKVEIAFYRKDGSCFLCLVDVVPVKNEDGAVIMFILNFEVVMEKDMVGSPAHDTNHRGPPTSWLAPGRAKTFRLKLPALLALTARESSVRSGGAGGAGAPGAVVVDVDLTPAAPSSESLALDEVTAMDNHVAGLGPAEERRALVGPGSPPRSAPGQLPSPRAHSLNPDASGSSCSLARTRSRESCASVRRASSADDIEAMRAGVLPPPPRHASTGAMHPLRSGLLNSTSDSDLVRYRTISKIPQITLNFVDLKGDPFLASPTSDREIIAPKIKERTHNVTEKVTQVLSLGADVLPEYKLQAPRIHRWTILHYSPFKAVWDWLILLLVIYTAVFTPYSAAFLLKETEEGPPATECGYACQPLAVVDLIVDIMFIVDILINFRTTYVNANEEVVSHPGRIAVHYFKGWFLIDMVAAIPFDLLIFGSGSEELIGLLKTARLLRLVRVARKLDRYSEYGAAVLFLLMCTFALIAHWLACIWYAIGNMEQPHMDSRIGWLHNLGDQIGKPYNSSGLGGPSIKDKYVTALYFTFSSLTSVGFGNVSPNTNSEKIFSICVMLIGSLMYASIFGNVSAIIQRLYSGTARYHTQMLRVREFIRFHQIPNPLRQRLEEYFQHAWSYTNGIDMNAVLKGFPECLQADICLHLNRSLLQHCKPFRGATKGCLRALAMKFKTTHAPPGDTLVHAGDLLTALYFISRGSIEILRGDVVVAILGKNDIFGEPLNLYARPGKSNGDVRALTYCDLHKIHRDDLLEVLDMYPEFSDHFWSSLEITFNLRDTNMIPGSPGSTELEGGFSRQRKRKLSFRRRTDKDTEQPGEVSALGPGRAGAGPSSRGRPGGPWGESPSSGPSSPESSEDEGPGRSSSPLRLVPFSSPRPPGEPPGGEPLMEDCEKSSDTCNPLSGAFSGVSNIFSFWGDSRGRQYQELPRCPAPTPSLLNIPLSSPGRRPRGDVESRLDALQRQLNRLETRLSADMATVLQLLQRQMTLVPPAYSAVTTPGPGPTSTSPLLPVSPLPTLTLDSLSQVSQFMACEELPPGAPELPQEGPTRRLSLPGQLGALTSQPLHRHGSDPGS

Regarding `C[C@@H](O)[C@@H]1OC(=O)N2C[C@@H](c3c(O)ccc(Cl)c3Cl)C[C@@H]12` (single isomer, unassigned) [Compound 259], the IC50 in test [1] (setting [3]) was less than 1 µM; in test [2] (setting [4]) it was more than 30 µM.
In the same order, the values of `NC(=O)[C@H]1CC(=O)N2C[C@@H](c3c(O)ccc(Cl)c3Cl)C[C@H]2C1` (single isomer, unassigned) [Compound 231] are less than 1 µM and more than 30 µM.
With `C[C@H](O)C(=O)N1CC(=O)N2CC[C@@H](c3c(O)ccc(Cl)c3Cl)C[C@H]2C1` [Compound 49, (8R,9aS)-8-(2,3-dichloro-6-hydroxyphenyl)-2-[(2S)-2-hydroxypropanoyl]-hexahydro-1H-pyrido[1,2-a]pyrazin-4-one], the IC50 in test [1] (setting [5]) is less than 1 µM; in test [2] (setting [6]), more than 30 µM.
In the same order, the values of `CCC(=O)N1CC(=O)N2C[C@@H](c3c(O)ccc(Cl)c3Cl)C[C@H]2C1` [Compound 8, (7R,8aS)-7-(2,3-dichloro-6-hydroxyphenyl)-2-pro-pionylhexahydropyrrolo [1,2-a]pyrazin-4(1H)-one] are less than 1 µM and less than 30 µM.
On to `CNC[C@@H]1CC(=O)N2C[C@@H](c3c(O)ccc(Cl)c3Cl)C[C@H]2C1` (single isomer, unassigned) [Compound 239], for which the figures for the IC50 in test [1] (setting [3]) and in test [2] (setting [4]) were less than 1 µM and more than 30 µM, respectively.
With `O=C1CN(CCN2CCOCC2)C[C@@H]2C[C@H](c3c(O)ccc(Cl)c3Cl)CN12` [Compound 121, (7R,8aS)-7-(2,3-dichloro-6-hydroxyphenyl)-2-[2-(morpholin-4-yl)ethyl]-hexahydropyrrolo [1,2-a]pyrazin-4-one], the IC50 in test [1] (setting [3]) is less than 1 µM; in test [2] (setting [4]), less than 30 µM.
Taken in the same sequence, the figures for `O=C1CN([C@@H]2COC[C@H]2O)C[C@@H]2C[C@H](c3c(O)ccc(Cl)c3Cl)CN12` (relative stereo) [Compound 155, (7R,8aS)-7-(2,3-dichloro-6-hydroxyphenyl)-2-[(3R,4S)-rel-4-hydroxyoxolan-3-yl]-hexahydropyrrolo[1,2-a]pyrazin-4-one] were less than 1 µM and more than 30 µM.
In the same order, the values of `O=C1CN(c2ccnc(CO)n2)C[C@@H]2C[C@H](c3c(O)ccc(Cl)c3Cl)CN12` [Compound 169, (7R,8aS)-7-(2,3-dichloro-6-hydroxyphenyl)-2-[2-(hydroxymethyl)pyrimidin-4-yl]-hexahydropyrrolo[1,2-a]pyrazin-4-one] are less than 1 µM and more than 30 µM.
In the same order, the values of `O=C1CN(C2CN(CCO)C2)C[C@@H]2C[C@H](c3c(O)ccc(Cl)c3Cl)CN12` [Compound 134, (7R,8aS)-7-(2,3-dichloro-6-hydroxyphenyl)-2-[1-(2-hydroxyethyl)azetidin-3-yl]-hexahydropyrrolo [1,2-a]pyrazin-4-one] are less than 1 µM and more than 30 µM.
As for `O=C(CO)N1CC(=O)N2CC[C@@H](c3c(O)ccc(Cl)c3Cl)C[C@H]2C1` [Compound 1, (8R,9aS)-8-(2,3-dichloro-6-hydroxyphenyl)-2-(2-hydroxyacetyl)-hexahydro-1H-pyrido[1,2-a]pyrazin-4-one], the IC50 in test [1] (setting [5]) was less than 1 µM; in test [2] (setting [6]) it was more than 30 µM.
`CC1(CN2CC(=O)N3C[C@@H](c4c(O)ccc(Cl)c4Cl)C[C@H]3C2)CNC1` [Compound 167, (7R,8aS)-7-(2,3-dichloro-6-hydroxyphenyl)-2-[(3-methylazetidin-3-yl)methyl]-hexahydropyrrolo[1,2-a]pyrazin-4-one]: the figures for the IC50 in test [1] (setting [3]) and in test [2] (setting [4]) were less than 1 µM and more than 30 µM, respectively.
In the same order, the values of `CNCC1OC(=O)N2C[C@@H](c3c(O)ccc(Cl)c3Cl)C[C@@H]12` (stereo partly drawn) [Compound 281, (6R,7aS)-6-(2,3-dichloro-6-hydroxyphenyl)-1-[(methylamino)methyl]-tetrahydro-1H-pyrrolo[1,2-c][1,3]oxazol-3-one] are less than 1 µM and less than 30 µM.
Taken in the same sequence, the figures for `CN[C@H]1CC(=O)N2C[C@@H](c3c(O)ccc(Cl)c3Cl)C[C@H]2C1` (single isomer, unassigned) [Compound 199] were less than 1 µM and more than 30 µM.
In the same order, the values of `O=C1C[C@@H](CO)C[C@@H]2C[C@H](c3c(O)ccc(Cl)c3Cl)CN12` (single isomer, unassigned) [Compound 237] are less than 1 µM and more than 30 µM.
As to `COC[C@@H](CO)N1CC(=O)N2C[C@@H](c3c(O)ccc(Cl)c3Cl)C[C@H]2C1` (single isomer, unassigned; isomer 2) [Compound 119], the IC50 in test [1] (setting [3]) was less than 1 µM; in test [2] (setting [4]), more than 30 µM.
For the compound `CC1[C@@H]2C[C@H](c3c(O)ccc(Cl)c3Cl)CCN2C(=O)CN1C(=O)CO` (stereo partly drawn) [Compound 25, (8R,9aS)-8-(2,3-dichloro-6-hydroxypheny1)-2-(2-hydroxyacetyl)-1-methyl-hexahydro-1H-pyrido[1,2-a]pyrazin-4-one], the values for the 50% inhibitory concentration (IC50) in test [1] (setting [5]) and in test [2] (setting [6]) were less than 1 µM and more than 30 µM, respectively.
In the case of `CN(C)[C@@H]1CC(=O)N2C[C@@H](c3c(O)ccc(Cl)c3Cl)C[C@H]2C1` (single isomer, unassigned) [Compound 200], the IC50 was less than 1 µM in test [1] (setting [3]) and less than 10 µM in test [2] (setting [4]).
Taken in the same sequence, the figures for `C[C@H]1CN(C(=O)CO)C[C@@H]2C[C@H](c3c(O)ccc(Cl)c3Cl)CN2C1=O` (single isomer, unassigned; isomer 2) [Compound 92] were less than 1 µM and more than 30 µM.
In the same order, the values of `NC[C@]1(O)CC(=O)N2C[C@@H](c3c(O)ccc(Cl)c3Cl)C[C@H]2C1` (single isomer, unassigned) [Compound 219] are less than 1 µM and more than 30 µM.
For `NC(=O)N1CC(=O)N2C[C@@H](c3c(O)ccc(Cl)c3Cl)C[C@H]2C1` [Compound 55, (7R,8aS)-7-(2,3-dichloro-6-hydroxyphenyl)-4-oxo-hexahydropyrrolo[1,2-a]pyrazine-2-carboxamide], the IC50 is less than 1 µM in test [1] (setting [5]) and more than 30 µM in test [2] (setting [6]).
On to `O=C1CN(CC2(O)CNC2)C[C@@H]2C[C@H](c3c(O)ccc(Cl)c3Cl)CN12` [Compound 157, (7R,8aS)-7-(2,3-dichloro-6-hydroxyphenyl)-2-[(3-hydroxyazetidin-3-yl)methyl]-hexahydropyrrolo[1,2-a]pyrazin-4-one;], for which the IC50 was less than 1 µM in test [1] (setting [3]) and more than 30 µM in test [2] (setting [4]).
Turning to `O=C1CN(C(=O)[C@H]2C[C@@H](O)C2)C[C@@H]2C[C@H](c3c(O)ccc(Cl)c3Cl)CN12` (single isomer, unassigned; isomer 2) [Compound 22], the IC50 in test [1] (setting [5]) was less than 1 µM; in test [2] (setting [6]) it was more than 30 µM.
`CN(C)CC1CC(=O)N2C[C@@H](c3c(O)ccc(Cl)c3Cl)C[C@H]2C1` (stereo partly drawn) [Compound 240, (2R,8aR)-2-(2,3-dichloro-6-hydroxyphenyl)-7-[(dimethylamino)methyl]-hexahydro-1H-indolizin-5-one]: the IC50 in test [1] (setting [3]) is less than 1 µM; in test [2] (setting [4]), less than 10 µM.
As for `O=C1C[C@H](CN2CC(O)C2)C[C@@H]2C[C@H](c3c(O)ccc(Cl)c3Cl)CN12` (single isomer, unassigned) [Compound 243], the IC50 in test [1] (setting [3]) is less than 1 µM; in test [2] (setting [4]), less than 30 µM.
Taken in the same sequence, the figures for `O=C1O[C@H](CN2CC(O)C2)[C@@H]2C[C@H](c3c(O)ccc(Cl)c3Cl)CN12` (single isomer, unassigned) [Compound 283] were less than 1 µM and more than 30 µM.
In the same order, the values of `NC[C@@H]1OC(=O)N2C[C@@H](c3c(O)ccc(Cl)c3Cl)C[C@@H]12` (single isomer, unassigned) [Compound 272] are less than 1 µM and less than 30 µM.
Consider `O=C1O[C@@H](CN2CC(O)C2)[C@@H]2C[C@H](c3c(O)ccc(Cl)c3Cl)CN12` (single isomer, unassigned) [Compound 282], for which the IC50 in test [1] (setting [3]) was less than 1 µM; in test [2] (setting [4]), less than 30 µM.
With `O=C1OC[C@H](O)[C@@H]2C[C@H](c3c(O)ccc(Cl)c3Cl)CN12` (single isomer, unassigned) [Compound 267], the IC50 in test [1] (setting [3]) is less than 1 µM; in test [2] (setting [4]) it was more than 30 µM.

The record behind these values is patent US20230049231A1 (priority 2019, published 2023).
